Reference: patent publication US11440907B1 (Merck Patent GmbH, priority 2018, dated 2022)

Key:
Assay type in all cases: cell-based
[1] = system: XBP1(u)-luciferase splicing reporter in HepG2 hepatoma cells; experiment: HepG2 XBP1 reporter assay (XBP1(u)-Luc); conditions: Homo sapiens; for IC50: 6 h, six hours after addition of compound; for EC50: 6 hours after compound addition, Table 3, read-out: XBP1-luc HepG2 1 EC50
[2] = system: NCI-H929 (Multiple myeloma cells); experiment: Cell viability (ATPLite) in NCI-H929; conditions: Homo sapiens, 96 hours
Method: Cells were removed from liquid nitrogen storage, thawed and expanded in appropriate growth media. Once expanded, cells were seeded in 384-well tissue culture treated plates at 500 cells per well. After 24 hours, cells were treated for either 0 hours or treated for 96 hours with a testing compound (at the concentrations of 100 nM and 2 uM). At the end of either 0 hours or 96 hours, cell status was analyzed using ATPLite (Perkin Elmer) to assess the biological response of cells to the testing compound.

[3] = system: β-catenin-TCF-mediated reporter transcription activity in Colo 205 cells; experiment: Colo 205 reporter assay (TCF/LEF promoter-driven firefly luciferase); conditions: Homo sapiens; Colo 205 TCF/LEF luciferase reporter, 5 hours after compound addition, 384 well; read-out: Colo205 IC50

| IC50 [1] | IC50 [2] | EC50 [1] | IC50 [3] | Compound |
| --- | --- | --- | --- | --- |
| ≥ 5 µM | ≥ 25 µM | – | – | CCOC(=O)[C@@]1(C)CNc2cc(Cl)c([C@@H]3COCCCN3c3cc(C)nc(N)n3)cc2O1 [D-157] |
| < 0.6 µM | < 1 µM | – | – | Cc1cc(N2CCCOCC2c2cc(CN)c(C)cc2Cl)nc(N)n1 [D-46] |
| 0.6 to 2 µM | 1 to 10 µM | – | – | COc1cc(C2COCCCN2c2cc(C)nc(N)n2)c(Cl)cc1N1CCCC1 [D-17] |
| 0.6 to 2 µM | ≥ 25 µM | – | – | CCOC(=O)[C@@]1(C)CNc2cc(Cl)c([C@H]3COCCCN3c3cc(C)nc(N)n3)cc2O1 [D-37] |
| < 0.6 µM | ≥ 25 µM | – | – | Cc1cc(N2CCCOC[C@H]2c2ccc(N)cc2Cl)nc(N)n1 [D-29] |
| < 0.6 µM | < 1 µM | – | – | Cc1cc(N2CCCOC[C@H]2c2ccc(NC(=O)C3(F)CCOC3)cc2Cl)nc(N)n1 (stereo partly drawn) [D-58] |
| < 0.6 µM | 1 to 10 µM | – | – | C#CCOc1cc(Cl)c(C2COCCCN2c2cc(C)nc(N)n2)cc1OC [D-60] |
| ≥ 5 µM | ≥ 25 µM | – | – | CCOC(=O)[C@]1(C)CNc2cc(Cl)c([C@@H]3COCCCN3c3cc(C)nc(N)n3)cc2O1 [D-155] |
| ≥ 5 µM | ≥ 25 µM | – | – | CCOc1cc([C@@H]2COCCCN2c2cc(C)nc(N)n2)c(Cl)cc1OC [D-153] |
| < 0.6 µM | < 1 µM | – | – | COc1ccc([C@H]2COCCCN2c2cc(C)nc(N)n2)c(Cl)c1 [D-80] |
| ≥ 5 µM | ≥ 25 µM | – | – | COc1cc([C@@H]2COCCCN2c2cc(C)nc(N)n2)c(Cl)cc1OCC#N [D-159] |
| < 0.6 µM | < 1 µM | – | – | Cc1cc(N2CCCOC[C@@H]2c2ccc(N)cc2Cl)nc(N)n1 [D-30] |
| < 0.6 µM | ≥ 25 µM | – | – | COc1cc(F)c(F)cc1[C@H]1COCCCN1c1cc(C)nc(N)n1 [D-4] |
| ≥ 5 µM | ≥ 25 µM | – | – | Cc1cc(N2CCCOC[C@H]2c2cc3c(cc2Cl)OCC(C)(C)CO3)nc(N)n1 [D-154] |
| < 0.6 µM | < 1 µM | – | – | Cc1cc(N2CCCOC[C@@H]2c2cc3c(cc2Cl)NCCC3)nc(N)n1 [D-9] |
| – | – | 0.6 to 2 µM | 0.3 to 1 µM | Cc1cc(N2CCCOC[C@@H]2c2cc(NC(=O)CCO)ccc2Cl)nc(N)n1 (racemic) [I-174, (+/−)-N-[3-[4-(2-amino-6-methyl-pyrimidin-4-yl)-1,4-oxazepan-3-yl]-4-chloro-phenyl]-3-hydroxy-propanamide] |
| – | – | < 0.6 µM | < 0.3 µM | Cc1cc(N2CCCOCC2c2cc(NC(=O)C(F)F)ccc2Cl)nc(N)n1 (racemic) [I-250, (+/−)-N-(3-(4-(2-amino-6-methylpyrimidin-4-yl)-1,4-oxazepan-3-yl)-4-chlorophenyl)-2,2-difluoroacetamide] |
| – | – | < 0.6 µM | < 0.3 µM | Cc1cc(N2CCCOC[C@@H]2c2ccc(NCC3(C)COC3)cc2Cl)nc(N)n1 [I-240, 4-[(3S)-3-[2-chloro-4-[(3-methyloxetan-3-yl)methylamino]phenyl]-1,4-oxazepan-4-yl]-6-methyl-pyrimidin-2-amine] |

| IC50 [1] | IC50 [2] | EC50 [1] | IC50 [3] | Compound |
| --- | --- | --- | --- | --- |
| – | – | < 0.6 µM | < 0.3 µM | Cc1cc(N2CCCOC[C@@H]2c2ccc(N3CC4(CCO4)C3)cc2Cl)nc(N)n1 [I-260, 4-[(3S)-3-[2-chloro-4-(1-oxa-6-azaspiro[3.3]heptan-6-yl)phenyl]-1,4-oxazepan-4-yl]-6-methyl-pyrimidin-2-amine] |
| – | – | < 0.6 µM | 0.3 to 1 µM | Cc1cc(N2CCCOC[C@@H]2c2cc(Br)ccc2Cl)nc(N)n1 [I-245, 4-[(3S)-3-(5-bromo-2-chloro-phenyl)-1,4-oxazepan-4-yl]-6-methyl-pyrimidin-2-amine] |
| – | – | 0.6 to 2 µM | 0.3 to 1 µM | Cc1cc(N2CCCOCC2c2ccc(NC(=O)[C@H]3CCOC3)cc2Cl)nc(N)n1 (mixture of isomers) [I-281, (3S)—N-(4-(4-(2-amino-6-methylpyrimidin-4-yl)-1,4-oxazepan-3-yl)-3-chlorophenyl)-tetrahydrofuran-3-carboxamide] |
| – | – | < 0.6 µM | < 0.3 µM | Cc1cc(N2CCCOCC2c2ccc(C3CCCO3)cc2Cl)nc(N)n1 (racemic) [I-235, (+/−)-4-(3-(2-chloro-4-(tetrahydrofuran-2-yl)phenyl)-1,4-oxazepan-4-yl)-6-methylpyrimidin-2-amine] |
| – | – | < 0.6 µM | < 0.3 µM | Cc1cc(N2CCCOC[C@@H]2c2ccc(OC[C@@H](C)O)cc2Cl)nc(N)n1 (single isomer, unassigned) [I-265] |
| – | – | < 0.6 µM | < 0.3 µM | Cc1cc(N2CCCOCC2c2cc3c(cc2Cl)SCC(=O)N3)nc(N)n1 (racemic) [I-268, 6-[4-(2-amino-6-methyl-pyrimidin-4-yl)-1,4-oxazepan-3-yl]-7-chloro-4H-1,4-benzothiazin-3-one] |
| – | – | < 0.6 µM | 0.3 to 1 µM | CC(=O)Nc1cc([C@H]2COCCCN2c2cc(C)nc(N)n2)c(Cl)cc1F (single isomer, unassigned) [I-271] |
| – | – | ≥ 5 µM | 0.3 to 1 µM | COc1ccc(C2CCCCCN2c2cc(C)nc(N)n2)cc1 (racemic) [I-23, (+/−)-4-[2-(4-methoxyphenyl)azepan-1-yl]-6-methyl-pyrimidin-2-amine] |
| – | – | < 0.6 µM | < 0.3 µM | Cc1cc(N2CCCCC[C@H]2c2ccccc2Cl)nc(N)n1 (single isomer, unassigned) [I-14] |
| – | – | < 0.6 µM | 0.3 to 1 µM | Cc1cc(N2CCCOCC2c2ccc(NC(=O)[C@@H]3CCOC3)cc2Cl)nc(N)n1 (mixture of isomers) [I-280, (3R)—N-(4-(4-(2-amino-6-methylpyrimidin-4-yl)-1,4-oxazepan-yl)-3-chlorophenyl)-tetrahydrofuran-3-carboxamide] |
| – | – | < 0.6 µM | < 0.3 µM | CC(=O)N1CC(Nc2ccc([C@H]3COCCCN3c3cc(C)nc(N)n3)c(Cl)c2)C1 [I-262, (S)-1-(3-((4-(4-(2-amino-6-methylpyrimidin-4-yl)-1,4-oxazepan-3-yl)-3-chlorophenyl)amino)azetidin-1-yl)ethan-1-one] |
| – | – | < 0.6 µM | < 0.3 µM | Cc1cc(N2CCCOC[C@@H]2c2ccc(N3CC4(COC4)C3)cc2Cl)nc(N)n1 [I-259, 4-[(3S)-3-[2-chloro-4-(2-oxa-6-azaspiro[3.3]heptan-6-yl)phenyl]-1,4-oxazepan-4-yl]-6-methyl-pyrimidin-2-amine] |
| – | – | < 0.6 µM | 0.3 to 1 µM | Cc1cc(N2CCCOC[C@@H]2c2ccc(N3CCN(C)CC3)cc2Cl)nc(N)n1 [I-275, (S)-4-[3-[2-chloro-4-(4-methylpiperazin-1-yl)phenyl]-1,4-oxazepan-4-yl]-6-methyl-pyrimidin-2-amine] |
| – | – | < 0.6 µM | < 0.3 µM | Cc1cc(N2CCCCC[C@H]2c2ccccc2Br)nc(N)n1 (single isomer, unassigned) [I-3] |
| – | – | < 0.6 µM | < 0.3 µM | Cc1cc(N2CCCOC[C@@H]2c2ccc(NCC(C)(C)O)cc2Cl)nc(N)n1 [I-247, 1-[4-[(3S)-4-(2-amino-6-methyl-pyrimidin-4-yl)-1,4-oxazepan-3-yl]-3-chloro-anilino]-2-methyl-propan-2-ol] |
| – | – | < 0.6 µM | < 0.3 µM | Cc1cc(N2CCCOC[C@@H]2c2ccc(NC3CC3)cc2Cl)nc(N)n1 [I-248, 4-[(3S)-3-[2-chloro-4-(cyclopropylamino)phenyl]-1,4-oxazepan-4-yl]-6-methyl-pyrimidin-2-amine] |
| – | – | < 0.6 µM | 0.3 to 1 µM | Cc1cc(N2CCCOCC2c2ccc(C3CCC(=O)N3C)cc2Cl)nc(N)n1 (racemic) [I-239, (+/−)-5-(4-(4-(2-amino-6-methylpyrimidin-4-yl)-1,4-oxazepan-3-yl)-3-chlorophenyl)-1-methylpyrrolidin-2-one] |
